# Patent US20240374609A1, “NITROSAMINE IMPURITY, VARENICLINE PHARMACEUTICAL COMPOSITION CAPABLE OF REDUCING GENERATION OF NITROSAMINE IMPURITIES AND PREPARATION AND USE THEREOF” (VIWIT PHARMACEUTICALCO., LTD., priority 2021, published 2024)
# Experiment: Stability of solutions (control solution and sample solution at room temperature)
# Type: physicochemical
# Description: Control stock solution: 7.5 mg of the nitrosamine compound P08 (purity≥98%) was weighed into a 100 ml volumetric flask, dissolved and diluted with acetonitrile to volume (volumetric solution 1A). 1.0 mL of the volumetric solution 1A was added into a 100 ml volumetric flask, and diluted with acetonitrile to volume (volumetric solution 1B). 1.0 mL of the volumetric solution 1B was added into a 20 ml volumetric flask, and diluted with acetonitrile to volume to obtain the control stock solution.
# Control solution: 1.0 mL of the control stock solution was added into a 10 ml volumetric flask, and diluted with acetonitrile to volume to obtain the control solution.
# Sample solution: 10 varenicline tartrate tablets were placed in a 10 ml volumetric flask, added with 3 mL of purified water and 3 mL of acetonitrile, sonicated for 30s, then diluted with acetonitrile to volume and mixed evenly.
# The control solution and the sample solution were placed at room temperature, then injected for analysis at intervals of 0, 2, 4, 6, 8, 10, 12 hours, and the peak area ratio of each time point to the zero point (i.e., peak area change rate) was calculated.
structure (smiles),measurement,setting,value
O=NN1CC2CC(C1)c1cc3nccnc3cc12 [P08],peak area change rate within 12 hours,control solution (acetonitrile),< 12%
same,peak area change rate within 12 hours,sample solution (tablets in water/acetonitrile),< 3.5%
